The target in experiment [1] is Neprilysin (Canis familiaris). Kind of experiment: Inhibition of dog NEP.

For orientation: IC50 means the concentration that inhibits the measured activity by half.

Turning to `CCCC(CC1(C(=O)N[C@@H]2CC[C@H](C(N)=O)C2)CCCC1)C(=O)O` (stereo partly drawn) [2-((1-(((1R,3S)-3-carbamoylcyclopentyl)carbamoyl)cyclopentyl)methyl)pentanoic acid], the IC50 is more than 3000 nM in “Inhibition of dog ACE” and 213 nM in experiment [1].

`CCCC(CC1(C(=O)Nc2cc(Cc3ccccc3)ccn2)CCCC1)C(=O)O` (stereo unspecified) [2-((1-((4-benzylpyridin-2-yl)carbamoyl)cyclopentyl)methyl)pentanoic acid]: the results for the concentration for half-maximal inhibition (IC50) (in “Inhibition of dog ACE”; in experiment [1]) were more than 3000 nM and 96 nM, respectively.

As for `CCCNc1ccnc(NC(=O)C2(CC(CCC)C(=O)O)CCCC2)n1` (stereo unspecified) [2-((1-((4-(propylamino)pyrimidin-2-yl)carbamoyl)cyclopentyl)methyl)pentanoic acid], the IC50 in the experiment “Inhibition of dog ACE” was more than 3000 nM; in experiment [1], more than 2000 nM.

(Values after BindingDB's records for doi:10.1021/jm060133g (Pfizer, 2006).)
